According to a melting point compilation (Tetko et al.; mined from patent text by program, amines drawn as free bases though some values may be those of a salt):

Row | SMILES | melting point [°C]
1 | N#C/C=C1\CCc2ncc3c(c21)CCO3 | 231 to 233
2 | COCC1Cc2c(Cl)c(C)cc([N+](=O)[O-])c2O1 (stereo not drawn) | 117 to 119
3 | COCC1CN(c2ccc(C3CCC(OC(C)=O)CC3)cc2)C(=O)O1 (racemic) | 78 to 79
4 | CCCc1nc2ccccc2n1CC1=C(c2cccc(-c3nnn[nH]3)c2)CCC1 | 116 to 119
5 | Cc1c(C(=O)Nc2ccc(N3CCCC3)c(C#N)c2)cnn1-c1ccc(Cl)cc1 | 205
6 | CC(C)N1CC(C(S)Oc2cccc3cnccc23)OC1=O (stereo not drawn) | 237 to 239
7 | COC(=O)C1=C(C)NC(=S)N(S(C)(=O)=O)C1c1cccc([N+](=O)[O-])c1 (stereo not drawn) | 188 to 190
8 | CCCC(=O)c1cc2c(s1)CCC1CC(=O)N(c3ccc(Cl)cc3)N=C21 (stereo not drawn) | 157 to 159
9 | Cn1ncnc1COc1nn2c(-c3ccccc3F)nncc2c1-c1cc(F)cc(F)c1 | 171 to 173
10 | CN1CCN(c2cc(Cl)cc3c2c(=O)n(Cc2cccc4ccccc24)c(=O)n3Cc2ccccc2)CC1 | 75 to 89
11 | N#CCCNC(=O)c1cc(F)cc(-c2cccc3cc(Cc4ccc(F)c(Cl)c4)sc23)c1 | 127 to 128
12 | Cc1ccnc(N=C2SC[C@@H]3Cc4ccccc4CN23)n1 | 179
13 | COc1cccc(N2CCN(c3c(C)c(C)c4c(c3C)C(N3CCCC3)C(C)(C)O4)CC2)c1 (stereo not drawn) | 106 to 107
14 | CCOC1=NS(=O)(=O)c2ccc([N+](=O)[O-])cc21 | 151 to 154
15 | NCCCNC(=O)c1cccc(Nc2nccc(-c3ccnc(NCCCO)c3)n2)c1 | 169 to 170
16 | CS(=O)(=O)c1ccc(C2=C(c3ccc(-c4ccsc4)cc3)C(=O)OC2)cc1 | 220 to 222
17 | CCSc1nc(=O)[nH]cc1C | 181 to 184
18 | CC(C)(C)NC(=S)Nc1cc(F)cc(Cl)c1 | 135 to 137
19 | Clc1cccc(-c2cnccn2)c1 | 53 to 54

Row | SMILES | melting point [°C]
20 | CCOc1ccc(C2=NN(c3ccc(C(=O)N4CCN(c5cnn(-c6ccccc6)c(=O)c5Cl)CC4)cc3)C(=O)[C@@H]3CC=CC[C@H]23)cc1OCC | 148 to 151
21 | CC(=O)Nc1ccc2nc(CN3[C@H](C)CCC[C@@H]3C)ccc2c1 | 120 to 122
22 | CC(=O)OC1CSC(Oc2ccc(-c3ccsc3)nc2)C(OC(C)=O)C1OC(C)=O (stereo not drawn) | 158
23 | Clc1nc(Cl)c2ccsc2n1 | 116
24 | COc1cc2cc3c(Nc4ccc(Sc5nccn5C)c(Cl)c4)c(C#N)cnc3cc2cc1OCCN1CCN(C)CC1 | 184 to 186
25 | Cc1nc2ncnn2c2c1c(O)c(O)n2C | 215 to 217
26 | COc1ccccc1[C@H](c1cccc2ccccc12)[C@@](C)(C#N)C(=O)N1CC=C(c2ccc(Cl)cc2)CC1 | 118 to 122
27 | C=CC12CCc3cc(O)ccc3C1CCC1(C)C(O)CCC12 (stereo not drawn) | 149 to 151
28 | C#CCN1C(=O)COc2cc(-c3nn(C)c(C(F)(F)F)c3Cl)c(F)cc21 | 184
29 | CCOC(=O)CSc1nnc(-c2ccc3c(c2)CCO3)o1 | 92 to 93
30 | CS(=O)(=O)c1ccc(-c2cnn(-c3ccc(F)c(F)c3)c(=O)c2CCC=C2CC2)cc1 | 128 to 129
31 | COc1cc2c(Nc3cccc(Cl)c3F)ncnc2cc1OC1CCN(C(=O)C2CCCO2)CC1 (stereo not drawn) | 193 to 194
32 | CCC#CCCOc1cc(C=O)ccc1OC | 86.5 to 87.5
33 | CCCCCCCCCCCCc1ccc(S(=O)(=O)Nc2nnc(CCCCCNC)s2)cc1 | 158 to 160
34 | CC(C)(C)Sc1cccc(CCC(O)c2ccccc2)c1NC(=O)CC1c2ccccc2Oc2ccccc21 (stereo not drawn) | 145 to 147
35 | C[C@@H]1C(=O)C[C@H]2C[C@@H]1OO[C@@]2(C)/C=C\c1ccccc1 | 60
36 | N#Cc1c(Cl)[nH]c(Cl)c1Cl | > 300
37 | CCOc1ccc2nc3[nH]cnc(=O)c3cc2c1OC | 330 to 331
38 | O=C(Nc1nccs1)c1nc(-c2ccc(C(F)(F)F)cc2)[nH]c1-c1ccc(F)cc1 | > 250

Row | SMILES | melting point [°C]
39 | COc1ccc(-c2ccc3[nH]c(=O)ccc3c2)cc1 | 262 to 264
40 | Nc1nc2c(sc(=O)n2CC(O)CO)c(=O)[nH]1 (stereo not drawn) | 248 to 254
41 | Nc1ccc(CC(=O)N2CCC(c3[nH]nc4c3C(=O)c3c(NC(=O)NN5CCOCC5)cccc3-4)CC2)cc1 | 177 to 179
42 | Cc1cc(Cl)c([N+](=O)[O-])c(=O)[nH]1 | 225
43 | N=C(NO)c1ccc(-c2ccc(-c3nc4cc(C(=N)NO)ccc4[nH]3)cc2)nc1 | 305 to 308
44 | CCOC(CCOc1cc(Cc2cnc(N)nc2N)cc(OC)c1OC)OCC | 105 to 106
45 | Cc1ccc2nc(O)c(O)nc2c1 | > 300
46 | CCN(CC)CCOc1ccc(-c2oc3ccc(Cl)cc3c2C(=O)c2cc(C)cc(C)c2)cc1 | 161 to 162
47 | Cc1ccc(S(=O)(=O)OCCC2(O)CCc3cc(F)ccc3C2C(C)C)cc1 (stereo not drawn) | 65 to 67
48 | O=c1sc(CO)c(C(F)(F)F)n1CC=C(Cl)Cl | 81
49 | O=C(NCc1ccc(Cl)cc1)c1cnc2cc(C(F)(F)F)ccc2c1O | 189 to 190
50 | CC(=O)OC1CCC2(C)C(=CCC3C4=CCC(C(C)=O)C4(C)CCC32)C1 (stereo not drawn) | 205 to 208
51 | CC(C)(CO)C(O)C(Oc1ccc(Cl)cc1)n1cncn1 (stereo not drawn) | 110 to 112
52 | Cc1c(C(=O)C(N)=O)c2c(OCC(=O)O)cc3c(c2n1Cc1ccccc1)CCCC3 | > 300
53 | O=Cc1nn(-c2cccc(C(F)(F)F)c2)c2c1CCCC2 | 88
54 | O=C(O)[C@@H]1C[C@H]2C[C@@H](CCc3cc(O)no3)CC[C@H]2CN1 (racemic) | 256
55 | NC(=O)c1nc2ccccc2cc1OCCCN1CCN(c2cccc3sccc23)CC1 | 153 to 154
56 | CCNc1cccnc1N1CCN(Cc2cc(C)c(O)c(C)c2)CC1 | 203 to 206
57 | CCc1nn2c(-c3cccc(C(F)(F)F)c3)ccnc2c1C#N | 144 to 146

Continued, values first:

Row | melting point [°C] | SMILES
58 | 177 to 179 | CN(CC(=O)O)C(=O)C=Cc1ccccc1
59 | 179 to 180 | CCCc1cc(Cl)c2oc(Cc3ccc(OCC(=O)O)cc3)c(C)c2c1O
60 | 184 to 187 | O=C(CCl)c1ccc2c(C(=O)CCl)ccc3c2c1CC3
61 | 147 to 148 | Cc1oc(-c2ccccc2)nc1COc1ccc(COc2ncccc2CC(=O)O)cn1
62 | 146 to 147 | CC(C)(NC(=O)C(O)C(Cc1ccc(S(C)(=O)=O)cc1)NC(=O)OCc1ccccc1)C(=O)O (stereo not drawn)
63 | 176 to 178 | CCc1oc2ccccc2c1C(=O)N(C)Cc1ccc2c(Br)c(O)ccc2c1
64 | 90 to 92 | COC(=O)c1ccc(OCCCOc2ccccc2)cc1O
65 | 135 to 140 | COc1ccccc1N1CCN(CCCNC(=O)c2cccc3c(=O)cc(-c4ccccc4)[nH]c23)CC1
66 | 57 to 60 | CCCCNC(=O)Oc1ccc(Oc2ccccc2)cc1Br
67 | 107 to 109 | COC(C#N)Cc1ccc2oc(Cc3nc(-c4ccccc4)oc3C)cc2c1 (stereo not drawn)
68 | 129 | O=C(O)C1=c2ccccc2=CC=C2CC=CC=C21
69 | 201 to 204 | N#Cc1ccc(N(Cc2ccc(OS(N)(=O)=O)c(Cl)c2)n2cnnc2)cc1-c1ccccc1
70 | 86 to 87 | CCOC(=O)CN(C)S(=O)(=O)c1c(C(=O)OC)sc2cc(C)ccc12
71 | 220 to 221 | Cc1ccc(S(=O)(=O)N2c3ccc(Cl)cc3C(O)(c3ccccc3Cl)C2C(=O)N(C)C)cc1 (stereo not drawn)
72 | 298 | O=C(Nc1cccc(C(=O)Nc2ccccc2)c1)Nc1nnc(-c2cc(Cl)cc(Cl)c2O)s1
73 | 70 to 72 | COc1cccc(C(=O)N(C(=O)OCI)N(C(=O)c2cc(C)cc(C)c2)C(C)(C)C)c1C
74 | 138 | CC(C)(CO)NS(=O)(=O)c1cccc(Br)c1
75 | 105 to 108 | CCCc1c(OCCCOc2ccccc2C(=O)O)ccc(C(C)=O)c1O
76 | 172 to 173 | O=C(CCc1cnoc1-c1ccccc1)Nc1nc(-c2ccc(Cl)cc2)cs1
77 | 92 to 93 | CCOc1nn(-c2ccccn2)cc1CCCOc1ccc(CCC(=O)O)cc1OC
78 | 182 to 184 | Cn1nc(-c2cccc(C(F)(F)F)c2)c(Br)c1C(=O)O

Row | melting point [°C] | SMILES
79 | 130 to 134 | Cc1cc(Cl)ccc1OCC(=O)N1Cc2ccc(C(=O)c3cccc4ccccc34)n2Cc2ccccc21
80 | 111 to 112 | CCC(=O)c1cc(-c2ccccc2)no1
81 | 88 to 90 | CC(=O)c1c(O)cccc1OCC(O)COc1c(C)cccc1C (stereo not drawn)
82 | 154 to 156 | O=C1Nc2c(Cl)cccc2C1(O)c1ccccc1 (stereo not drawn)
83 | 135 to 136 | CC1=C(C(=O)OCCC#N)C(c2c(F)cccc2Cl)C(C(=O)OC2CCCC2)=C(C)N1 (stereo not drawn)
84 | 156 to 157 | O=C(Nc1ccc(F)cc1)NN1CC=CCC1
85 | 241 to 250 | O=C(O)c1ccc2cc(O)c(O)cc2c1
86 | 185 to 186 | CNS(=O)(=O)c1cc2ccccc2cc1CC(=O)O
87 | 147 | CC(=O)Nc1ccc(N2CCC(N(C)Cc3ccccc3)CC2)cc1
88 | 209 to 211 | O=C(O)c1cnn(-c2cccc(Cl)c2)c1Cl
89 | 122 to 123 | CCN(CC)CCCNC(=O)c1ccc(S(N)(=O)=O)cc1
90 | 108 to 109 | CN(C)CC1Cc2ccccc2N(S(=O)(=O)CCc2ccc(-c3ccccc3)cc2)C1 (stereo not drawn)
91 | 232 to 233 | CC(C)Oc1ccc2c(c1)N(C)C(=O)N(c1ccc(CC(=O)O)cc1)S2(=O)=O
92 | 96 to 97 | O=C(C=Cc1cccc(F)c1)C=Cc1cccc(F)c1
93 | 85 to 105 | COc1cc(OC)c(-c2cc3ccccc3s2)cc1C=CC(=O)c1cc(OC)c(O)c(OC)c1
94 | 105 to 106 | CC(C)(C)OC(=O)c1ccc(CN(CCc2ccccc2)C(=O)OC(C)(C)C)c(N)c1
95 | 108 to 109 | O=C(CCC(=O)N1CCC(c2ccc(Cl)cc2)CC1)c1ccc2c(c1)CCN(CC(=O)c1ccccc1)CC2
96 | 110 to 112 | N#CN=C(NCCC[C@@H](NC(=O)C(c1ccccc1)c1ccccc1)C(=O)NCc1ccc(O)cc1)Oc1ccccc1
97 | 166 | COc1ccc2ccc(N3C(=O)c4ccccc4C3OCC(=O)N(C)C)nc2n1 (stereo not drawn)
98 | 105 | CON=C(C)C(=NOC)C(C)=NOCc1ccccc1CON=CC(=O)OC
